Test results taken from ChEMBL document CHEMBL6109103, “Dodecapeptides derived from human cathelicidin with potent activity against carbapenem-resistant Acinetobacter baumannii” (Eur J Med Chem, 2025).
Converted amounts (≈) assume the structure as drawn. The source made the active and inactive calls. No cut-off for these calls is given here. Positions of bridges follow the written chain, without caps; N, C: chain ends. Non-standard residues stand in square brackets, D forms with d. Residues, ends and D or L forms follow the SMILES beside them. S5 = C=CCCC[C@](C)(N)C(=O)O

Key:
[1] = tested on: Acinetobacter baumannii; test: Antibacterial activity against multidrug-resistant Acinetobacter baumannii assessed as inhibition of bacterial growth incubated for 24 hrs by broth dilution assay; assay type: functional
[2] = tested on: Acinetobacter baumannii; test: Antibacterial activity against Acinetobacter baumannii ATCC 19606 assessed as inhibition of bacterial growth incubated for 24 hrs by broth dilution assay; assay type: functional
[3] = tested on: Staphylococcus aureus; test: Antibacterial activity against Methicillin-resistant Staphylococcus aureus ATCC 43300 assessed as inhibition of bacterial growth incubated for 24 hrs by broth dilution assay; assay type: functional
[4] = tested on: Staphylococcus aureus; test: Antibacterial activity against Staphylococcus aureus […] assessed as inhibition of bacterial growth incubated for 24 hrs by broth dilution assay; assay type: functional
[5] = tested on: Acinetobacter baumannii; test: Antibacterial activity against carbapenem-resistant Acinetobacter baumannii clinical isolate 1 assessed as inhibition of bacterial growth incubated for 24 hrs by broth dilution assay; assay type: functional
[6] = tested on: Acinetobacter baumannii; test: Antibacterial activity against carbapenem-resistant Acinetobacter baumannii clinical isolate 2 assessed as inhibition of bacterial growth incubated for 24 hrs by broth dilution assay; assay type: functional
[7] = tested on: Acinetobacter baumannii; test: Antibacterial activity against carbapenem-resistant Acinetobacter baumannii clinical isolate 3 assessed as inhibition of bacterial growth incubated for 24 hrs by broth dilution assay; assay type: functional
[8] = tested on: Acinetobacter baumannii; test: Antibacterial activity against carbapenem-resistant Acinetobacter baumannii clinical isolate 4 assessed as inhibition of bacterial growth incubated for 24 hrs by broth dilution assay; assay type: functional
[9] = tested on: Acinetobacter baumannii; test: Antibacterial activity against carbapenem-resistant Acinetobacter baumannii clinical isolate 5 assessed as inhibition of bacterial growth incubated for 24 hrs by broth dilution assay; assay type: functional
[10] = tested on: Acinetobacter baumannii; test: Antibacterial activity against carbapenem-resistant Acinetobacter baumannii clinical isolate 6 assessed as inhibition of bacterial growth incubated for 24 hrs by broth dilution assay; assay type: functional
[11] = tested on: Acinetobacter baumannii; test: Antibacterial activity against carbapenem-resistant Acinetobacter baumannii clinical isolate 7 assessed as inhibition of bacterial growth incubated for 24 hrs by broth dilution assay; assay type: functional
[12] = tested on: Acinetobacter baumannii; test: Antibacterial activity against carbapenem-resistant Acinetobacter baumannii clinical isolate 8 assessed as inhibition of bacterial growth incubated for 24 hrs by broth dilution assay; assay type: functional
[13] = tested on: Acinetobacter baumannii; test: Antibacterial activity against carbapenem-resistant Acinetobacter baumannii clinical isolate 6 assessed as bacterial killing at 3.16 microg/ml measured within 10 mins; assay type: functional, organism-based; conditions: dose 3.16 µg/ml
[14] = tested on: Acinetobacter baumannii; test: Antibacterial activity against carbapenem-resistant Acinetobacter baumannii clinical isolate 6 assessed as bacterial killing at 3.16 microg/ml measured for 1 hr in presence of NaCl; assay type: functional, organism-based; conditions: dose 3.16 µg/ml
[15] = tested on: Acinetobacter baumannii; test: Antibacterial activity against carbapenem-resistant Acinetobacter baumannii clinical isolate 6 assessed as bacterial killing at 3.16 microg/ml measured for 10 to 30 mins in presence of mouse serum; assay type: functional, organism-based; conditions: dose 3.16 µg/ml, time 10-30 min
[16] = tested on: proteinase K; test: Proteolytic stability assessed as proteinase K (unknown origin)-mediated drug degradation measured for 20 mins by LC-MS analysis; assay type: ADME, Homo sapiens; conditions: read-out: Drug degradation
[17] = tested on: Acinetobacter baumannii; test: Synergistic antibacterial activity against carbapenem-resistant Acinetobacter baumannii clinical isolate 6 in presence of CTX by microdilution checkerboard assay; assay type: functional, organism-based
[18] = tested on: Acinetobacter baumannii; test: Synergistic antibacterial activity against carbapenem-resistant Acinetobacter baumannii clinical isolate 6 in presence of tetracycline by microdilution checkerboard assay; assay type: functional, organism-based
[19] = tested on: Pseudomonas aeruginosa; test: Antibacterial activity against human Pseudomonas aeruginosa assessed as inhibition of bacterial growth; assay type: functional, organism-based
[20] = tested on: Escherichia coli; test: Antibacterial activity against human Escherichia coli assessed as inhibition of bacterial growth; assay type: functional, organism-based
[21] = Binding affinity to gram negative bacterial lipid II assessed as dissociation constant by BLI analysis; parameters: species or system Bacteria
[22] = target: Lipoteichoic acid; test: Binding affinity to […] bacterial Lipoteichoic acid assessed as dissociation constant by BLI analysis; parameters: species or system Bacteria
[23] = tested on: Cell membrane; test: Induction of outer membrane permeabilization in carbapenem-resistant Acinetobacter baumannii clinical isolate 6 at 6.25 to 12.5 microg/ml measured for 1 hr by NPN-dye based assay; conditions: dose 6.25-12.5 µg/ml
[24] = tested on: Cell membrane; test: Induction of inner membrane permeabilization in carbapenem-resistant Acinetobacter baumannii clinical isolate 6 at 6.25 microg/ml measured for 1 hr by NPN-dye based assay; conditions: dose 6.25 µg/ml
[25] = tested on: Acinetobacter baumannii; test: Induction of morphological changes in carbapenem-resistant Acinetobacter baumannii at 6.25 microg/ml measured for 24 hrs by SEM analysis; assay type: functional, organism-based; conditions: dose 6.25 µg/ml
[26] = tested on: HaCaT; test: Cytotoxicity against human HaCaT cells assessed as cell death up to 100 microg/ml measured upto 24 hrs; assay type: toxicity, cell-based; conditions: dose < 100 µg/ml
[27] = Hemolytic activity at mouse RBC assessed as hemolysis; assay type: toxicity, cell-based, Erythrocyte; conditions: mouse red blood cells, read-out: Activity
[28] = Toxicity in BALB/c mouse assessed as animal survival at 4 to 64 mg/kg, ip measured for 5 days; assay type: organism-based; conditions: in vivo, 120 h, dose 4-64 mg/kg, time 5 day
[29] = Toxicity in BALB/c mouse assessed as heart damage at 64 mg/kg, ip measured for 3 days by H and E staining based analysis; assay type: organism-based; conditions: in vivo, 72 h, time 3 day
[30] = Toxicity in BALB/c mouse assessed as liver damage at 64 mg/kg, ip measured for 3 days by H and E staining based analysis; assay type: organism-based; conditions: in vivo, 72 h, time 3 day
[31] = Toxicity in BALB/c mouse assessed as spleen damage at 64 mg/kg, ip measured for 3 days by H and E staining based analysis; assay type: organism-based; conditions: in vivo, 72 h, time 3 day
[32] = Toxicity in BALB/c mouse assessed as lung damage at 64 mg/kg, ip measured for 3 days by H and E staining based analysis; assay type: organism-based; conditions: in vivo, 72 h, time 3 day
[33] = Toxicity in BALB/c mouse assessed as kidney damage at 64 mg/kg, ip measured for 3 days by H and E staining based analysis; assay type: organism-based; conditions: in vivo, 72 h, time 3 day
[34] = tested on: Acinetobacter baumannii; test: Antibacterial activity against carbapenem-resistant Acinetobacter baumannii clinical isolate 6 infected in BALB/c mouse assessed as survival rate at 1.25 mg/kg, NAS administered once a day for 3 days; assay type: functional; conditions: 72 h, time 3 day
[35] = Toxicity in BALB/c mouse assessed as animal survival at 1.25 mg/kg, NAS measured for 5 days; assay type: organism-based; conditions: in vivo, inhaled or intranasal, time 5 day
[36] = tested on: proteinase K; test: Proteolytic stability assessed as proteinase K (unknown origin)-mediated drug degradation at 500 microg/ml measured for 20 mins by LC-MS analysis; assay type: ADME, Homo sapiens; conditions: at 500 µg/mL, read-out: Drug degradation

Compound	MIC [1] [µg/mL]	MIC [2] [µg/mL]	MIC [3] [µg/mL]	MIC [4] [µg/mL]	MIC [5] [µg/mL]	MIC [6] [µg/mL]	MIC [7] [µg/mL]	MIC [8] [µg/mL]	MIC [9] [µg/mL]	MIC [10] [µg/mL]	MIC [11] [µg/mL]	MIC [12] [µg/mL]	Activity [17]	Activity [18]	Activity [19]	Activity [20]	Kd [21] [nM]	Kd [22] [nM]	Activity [25]	Activity [26]	also measured
H-KRIVRRIKIFLR-OH	5	10	80	80	10	20	5	5	10	2.5	10	10	Active	Active	Active	Active	7.14	48.3	Active	Non-toxic	Activity [13]: Active; Activity [14]: Active; Activity [15]: Active; metabolised at 20 min [16]: 89.4%; Activity [23]: Active; Activity [24]: Active; hemolysis [27]: < 1%; Activity [28]: Non-toxic; Activity [29]: Non-toxic; Activity [30]: Non-toxic; Activity [31]: Non-toxic; Activity [32]: Non-toxic; Activity [33]: Non-toxic; survival at 1.25 mg/kg [34]: 40%; survival at 120 h [35]: 30%
CC[C@H](C)[C@H](NC(=O)[C@H](CCCNC(=N)N)NC(=O)[C@@H](N)CCCCN)C(=O)N[C@@]1(C)CCC/C=C\CCC[C@@](C)(C(=O)N[C@H](C(=O)N[C@@H](Cc2ccccc2)C(=O)N[C@@H](CC(C)C)C(=O)N[C@@H](CCCNC(=N)N)C(=O)O)[C@@H](C)CC)NC(=O)[C@H]([C@@H](C)CC)NC(=O)[C@H](CCCNC(=N)N)NC(=O)[C@H](CCCNC(=N)N)NC1=O (H-KRI[S5]RRI[S5]IFLR-OH; staple (Z) 4-8)	5 (≈ 3.08 µM)	5 (≈ 3.08 µM)	80 (≈ 49.3 µM)	80 (≈ 49.3 µM)	5 (≈ 3.08 µM)	10 (≈ 6.17 µM)	5 (≈ 3.08 µM)	10 (≈ 6.17 µM)	5 (≈ 3.08 µM)	2.5 (≈ 1.54 µM)	20 (≈ 12.3 µM)	5 (≈ 3.08 µM)	Active	Active	Active	Active	5.9	48.9	Active	Non-toxic	metabolised at 20 min, 500 microg/ml [36]: 17.8%; hemolysis [27]: < 1%; Activity [28]: Non-toxic; Activity [29]: Non-toxic; Activity [30]: Non-toxic; Activity [31]: Non-toxic; Activity [32]: Non-toxic; Activity [33]: Non-toxic; survival at 1.25 mg/kg [34]: 50%; survival at 120 h [35]: 70%
